Results taken from US20100196476A1, “PROCESS FOR THE PREPARATION AND PHARMACEUTICAL FORMULATIONS FOR 4-QUINOLINONES AND QUINOLINES AND USE THEREOF” (FUNDACAO UNIVERSIDADE FEDERAL DE SAO CARLOS, priority 2007, published 2010).

How the values were obtained:
[1] = test system: coagulant serine proteases; assay: initial screening, coagulant activity of snake venoms; assay type: biochemical, Bothrops jararacussu, B. moojeni, B. alternatus; settings: first screening assay, FIG. 2
Method: (§1) This screening was for the venoms of the Bothrops jararacussu, B. moojeni, B. alternatus and B. jararacussu BjussuMP-I snakes to determine promising compounds.
(§2) Aliquots of plasma (0.2 mL) were incubated with venom or venom/inhibitor (50 μL) in varying proportions (m/m) during a period of 30 minutes at 37° C. and the coagulation time was verified. The control tubes included plasma incubated with phosphate buffered saline solution (PBS)+calcium or dimethyl sulphoxide or only the compound.

[2] = test system: snake venoms and isolated serine protease; assay: coagulant activity in human plasma (FIG. 3C); assay type: biochemical, Bothrops and Crotalus; settings: induced by snake venoms and isolated serine protease
Method: as §2

[3] = test system: haemorrhagic metalloprotease of the venoms; assay: initial screening, haemorrhagic metalloprotease of the venoms; design: species or system Bothrops jararacussu, B. moojeni, B. alternatus; settings: first screening assay, FIG. 2
From the text: as §1

[4] = test system: venoms and isolated PLA2s; assay: myotoxic activity in mice (plasma CK); assay type: in vivo; settings: induced by venoms of B. jararacussu and C. durissus terrificus and isolated PLA2s
[5] = test system: snake venoms and isolated metalloprotease; assay: proteolytic activity in casein (FIG. 3B); assay type: biochemical, Bothrops; settings: induced by snake venoms and isolated metalloprotease
[6] = target: Class I metalloprotease neuwiedase (Bothrops pauloensis, UniProt Q9I9R4); assay type: biochemical, B. neuwiedi
[7] = test system: venom of B. jararacussu (BjussuSP-I); assay: coagulant activity, B. jararacussu venom; assay type: biochemical; settings: FIG. 3C
Method: as §2

[8] = test system: venom of Bothrops and the isolated metalloprotease; assay: haemorrhage induced by Bothrops venoms and isolated metalloprotease (FIG. 3A); assay type: in vivo; settings: venom of Bothrops and Crotalus snakes and isolated metalloprotease
Method: FIG. 3A: Effect of compound 2 on the haemorrhage induced by the venom of Bothrops and the isolated metalloprotease. FIG. 3B: Effect of compound 2 on the proteolytic activity induced by the venom of Bothrops and the isolated metalloprotease. FIG. 3C: Effect of the coagulant activity of compound 2 induced by the venoms of Bothrops and Crotalus and the isolated serine protease. The results are expressed by the mean±standard deviation (SD) (n=6).
Therefore, further assays were performed to determine the efficiency of compound 2 for various other activities. FIG. 3A presents the effects of 2 on haemorrhages induced by the different venoms of the Bothrops genus snakes and an isolated metalloprotease.

[9] = test system: venoms and isolated PLA2s; assay: oedema inducing activity in mice; assay type: in vivo; settings: induced by venoms of B. jararacussu and C. durissus terrificus and isolated PLA2s
Method: The oedemas are induced by the direct injection of venom (20 μg) and purified proteins (20 μg) into the right leg of male Swiss mice (18-22 g). Inhibition activity is verified incubating the venom or isolated protein with the inhibitor in varying concentrations (m/m). The control groups are injected with 50 μL of phosphate buffered saline solution (PBS, pH=7.2) alone, dimethyl sulphoxide (DMSO) or the compounds. Oedema progression is assessed through measurement of the […] using a pachymeter (Mitutoyo, Japan) at intervals of 30 and 60 minute after injection.

[10] = test system: venom of B. jararacussu, BjussuSP-I and BjussuMP-I; assay: fibrinogenolytic activity on bovine fibrinogen, SDS-PAGE (FIG. 4A); assay type: biochemical; settings: enzymes incubated with inhibitor 30 minutes at 37° C., 1:10 by mass
Method: Lanes: 1—Fibrinogen+venom of B. jararacussu (4 μg)+2 (40 μg); 2—Fibrinogen+enzyme BjussuSP-I (2 μg)+2 (20 μg); 3—Fibrinogen+BjussuMP-I (2 μg)+2 (20 μg); 4—Fibrinogen control. The enzymes were incubated together with 2 for 30 minutes at 37° C. The results are expressed by the mean±S.D (n=3). (B): Interaction between the venom of the B. jararacussu snake and 2. Samples containing venom/toxin (20 μg) and the […] (600 μg) were incubated for 30 minutes at 37° C. at a ratio of 1:30 (w/w). Lanes: 1—BthTX-I+2; 2—BthTX-II+2; 3—venom of B. jararacussu+2; 4—only BthTX-I; 5—only BthTX-II; 6—only the venom of B. jararacussu.

[11] = test system: basic Asp49 PLA2s (BthTX-II and CB); assay: phospholipase A2 activity, basic Asp49 PLA2s; assay type: biochemical, B. jararacussu and C. d. terrificus; settings: compared with pure venoms and acid isoform Asp49 BthA-1-PLA2, FIG. 5C
Method: (§3) Indirect haemolytic activity is tested using agarose-erythrocyte-egg yolk gel as a substrate. The compounds are tested following incubation with the pure venoms or PLA2 in varying ratios (m/m).

[12] = test system: venoms and isolated PLA2s; assay: phospholipase A2 activity (indirect haemolytic); assay type: biochemical; settings: induced by venoms of B. jararacussu and C. durissus terrificus and isolated PLA2s
Method: as §3

[13] = test system: venom of C. d. terrificus (gyroxin); assay: coagulant activity, C. d. terrificus venom; assay type: biochemical; settings: FIG. 3C
Method: as §2

Chain of Class I metalloprotease neuwiedase (Q9I9R4 whole entry, looked up): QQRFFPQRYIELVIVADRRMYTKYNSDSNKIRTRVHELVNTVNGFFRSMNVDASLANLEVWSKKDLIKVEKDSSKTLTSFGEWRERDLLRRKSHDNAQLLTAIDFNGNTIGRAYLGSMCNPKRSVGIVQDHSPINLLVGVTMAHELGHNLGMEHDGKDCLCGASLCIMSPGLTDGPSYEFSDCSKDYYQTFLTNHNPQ

O=c1cc(CO)[nH]c2ccccc12 [Compound 1, 2-hydroxymethyl-1,4-dihydro-4-quinolinone]
inhibition of coagulant serine proteases [1]: partial inhibition

COc1ccc2[nH]c(CO)cc(=O)c2c1 [Compound 2, 2-hydroxymethyl-6-methoxy-1,4-dihydro-4-quinolinone]
inhibition of coagulant activity in human plasma [2]: significantly inhibits | inhibition of the haemorrhagic metalloprotease of the venoms [3]: potential of inhibiting | effect on myotoxicity [4]: partially reduced | inhibition of proteolytic activity on casein [5]: significantly inhibits | inhibition of proteolytic activity [6]: approximately 67% | action on coagulation [7]: powerful coagulation action | effect on haemorrhages induced by venom [8]: inhibits | effect on oedema [9]: partially reduced | inhibition of fibrinogenolytic activity [10]: inhibition | neutralising PLA2 activity [11]: more efficient | effect on activity for phospholipase [12]: partially reduced | inhibition of coagulant serine proteases [1]: partial inhibition | action on coagulation [13]: powerful coagulation action

CCOc1cc(CO)nc2ccc(OC)cc12 [Compound 10, 4-ethoxy-2-hydroxymethyl-6-methoxyquinoline]
inhibition of coagulant serine proteases [1]: partial inhibition

CCOCc1cc(OCC)c2cc(OC)ccc2n1 [Compound 11, 4-ethoxy-2-ethoxymethyl-6-methoxyquinoline]
inhibition of coagulant serine proteases [1]: partial inhibition

O=C(O)c1cn(C2CC2)c2cc(N3CCNCC3)c(F)cc2c1=O [Compound 13, 1-ciclopropyl-6-fluoro-1,4-dihydro-4-oxo-7-(1-piperazinyl)-3-quinolinecarboxylic acid, reference compound]
inhibition of coagulant serine proteases [1]: partial inhibition
